Assay results published in patent US7629150B2, “Transformed cell harboring DNA or RNA encoding sugar chain synthesizing agent having β1,3-N-acetylglucosaminyltransferase activity” (Kyowa Hakko Kirin Co., Ltd., priority 2000, dated 2009).

Experiments:
Type in all cases: biochemical
G6sec2 [1] = biological target: T1, G6sec2 (Homo sapiens, UniProt Q9BYG0); experiment: β1,3-N-acetylglucosaminyltransferase activity using pyridylaminated oligosaccharides as substrates; settings: 37° C., 14.5 hours
T1 construct: made in house; host or cells: Sf21 insect cells infected with pVL1393-F2G6sec2-derived recombinant baculovirus
T1 sequence (Q9BYG0 39-378): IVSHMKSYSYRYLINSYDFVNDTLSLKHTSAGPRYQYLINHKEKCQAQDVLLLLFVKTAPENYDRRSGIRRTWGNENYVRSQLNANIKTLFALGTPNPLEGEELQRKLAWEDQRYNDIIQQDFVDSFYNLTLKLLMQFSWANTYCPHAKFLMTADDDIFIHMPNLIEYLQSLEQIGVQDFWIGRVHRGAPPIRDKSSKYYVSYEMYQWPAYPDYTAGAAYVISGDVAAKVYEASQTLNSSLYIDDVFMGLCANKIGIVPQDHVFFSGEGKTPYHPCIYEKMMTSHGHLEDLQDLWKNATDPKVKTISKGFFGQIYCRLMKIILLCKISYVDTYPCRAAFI
Protocol: After carrying out the reaction at 37° C. for 14.5 hours in 30 μl of an assay solution [150 mmol/l sodium cacodylate (pH 7.2), 50 mmol/l UDP-GlcNAc (manufactured by SIGMA), 0.4% Triton CF-54, 10 mmol/l MnCl2, 50 μmol/l pyridylaminated sugar chain substrate, a purified enzyme solution (G6sec2)], the product was detected by HPLC. The purified enzyme (G6sec2) was obtained according to the method shown in Example 8(6). The purified enzyme (280 μl) was prepared from 30 ml of a culture supernatant of Sf21 infected with the recombinant virus derived from pVL1393-F2G6sec2, and the assay was carried out using 5 μl thereof. As substrates, LnNT, lacto-N-tetraose (Galβ1-3GlcNAcβ1-3Galβ1-4Glc (hereinafter referred to as “LNT”), lacto-N-fucopentaose II (Galβ1-3(Fucα1-4)GlcNAcβ1-3Galβ1-4Glc; hereinafter referred to as “LNFP-II”), lacto-N-fucopentaose III (Galβ1-4(Fucα1-3)GlcNAcβ1-3Galβ1-4Glc; hereinafter referred to as “LNFP-III”), lacto-N-fucopentaose V (Galβ1-3GlcNAcβ1-3Galβ1-4(Fucα1-3)Glc; hereinafter referred to as “LNFP-V”), and lacto-N-difucohexaose II (Galβ1-3(Fucα1-4)GlcNAcβ1-3Galβ1-4(Fucα1-3)Glc; hereinafter referred to as “LNDFH-II”) (all manufactured by Oxford Glycosystems) were fluorescently-labeled with aminopyridine and used. The substrates were fluorescently-labeled according to a conventional method [Agric. Biol. Chem., 54, 2169 (1990)].
After carrying out the reaction on each substrate using an assay solution containing UDP-GlcNAc (saccharide donor) and an assay solution containing no donor and subsequently analyzing by HPLC, peaks appeared only in the assay solution containing UDP-GlcNAc was defined as products.
The assay solution after completion of the reaction was treated at 100° C. for 5 minutes and then centrifuged at 10,000×g for 5 minutes to obtain a supernatant, and a part thereof (5 μl) was subjected to HPLC.
The HPLC was carried out using TSK-gel ODS-80Ts Column (4.6×300 mm; manufactured by TOSOH) and 0.02 mol/l ammonium acetate buffer (pH 4.0) as the eluant at an elution temperature of 50° C. and a flow rate of 0.5 ml/min.
Detection and determination of products were carried out using a fluorescence spectrophotometer FP-920 (manufactured by JASCO Corporation) (excitation wavelength: 320 nm, radiation wavelength: 400 nm).

G6sec2 [2] = biological target: T1, G6sec2; experiment: β1,3-N-acetylglucosaminyltransferase activity using unlabeled oligosaccharides as substrates (HPAE/PAD); settings: unlabeled oligosaccharide 10 mmol/l, 37° C., 16 hours
Protocol: The glycosyltransferase reaction was carried out as follows. The reaction was carried out at 37° C. for 16 hours in 40 μl of an assay solution [50 mmol/l MOPS (pH 7.5), 5 mmol/l UDP-GlcNAc (manufactured by SIGMA), 5 mmol/l MnCl2, 10 mmol/l sugar chain substrate, a purified enzyme solution (G6sec2)]. Next, the mixture was treated at 100° C. for 5 minutes and then centrifuged at 10,000×g for 20 minutes to obtain a supernatant, and a part thereof was analyzed using HPAE/PAD ([…]; manufactured by DIONEX). The method was specifically carried out according to a conventional method [Anal. Biochem., 189, 151-162 (1990), J. Biol. Chem., 273, 433-440 (1998)].
As a purified enzyme (G6sec2), […] of the enzyme obtained in the above (2) was used. As substrates, unlabeled oligosaccharides [lactose (Galβ1-4Glc) and LNnT] were used.
After the reaction on each substrate using an assay solution containing UDP-GlcNAc (saccharide donor) and an assay solution containing no donor, analysis was carried out using HPAE/PAD and peaks appeared only in the assay solution containing UDP-GlcNAc were defined as products. The product was identified using coincidence of its elution time with that of standard sugar chain as the index. As standard sugar chains, GlcNAcβ1-3Galβ1,4Glc and GlcNAcβ1-3Galβ1,4GlcNAcβ1-3Galβ1-4Glc were used.

G6sec2 [3] = biological target: T1, G6sec2; experiment: β1,3-N-acetylglucosaminyltransferase activity of purified FLAG peptide-fused G6 polypeptide, 2-aminobenzamide-labeled oligosaccharide substrates; settings: second enzyme-adsorbed ANTI-FLAG M1 AFFINITY GEL (printed G6sec1-adsorbed gel) used as enzyme

For `CC(=O)N[C@H]1[C@H](O[C@H]2[C@@H](O)[C@@H](CO)O[C@@H](O[C@H]3[C@H](O)[C@@H](O)C(O)O[C@@H]3CO)[C@@H]2O)O[C@H](CO)[C@@H](O[C@@H]2O[C@H](CO)[C@H](O)[C@H](O)[C@H]2O)[C@@H]1O` (mixture of isomers) [LNnT, lacto-N-neotetraose], the “Relative activity (%)” value (G6sec2 [1]; pyridylaminated oligosaccharides 50 μmol/l, LNnT defined as 100%) was 100%, the “conversion efficiency of the substrate into the product” value (G6sec2 [1]; pyridylaminated substrate 50 μmol/l) was 12.8% and the “conversion efficiency into the product” value (G6sec2 [2]) was 0.48%. For the same molecule, the “conversion efficiency of the substrate” value (G6sec2 [3]) was 20.2%.
